In US20160038532A1, “Treatment of Multiple Sclerosis With Combination of Laquinimod and Glatiramer Acetate” (TEVA PHARMACEUTICAL INDUSTRIES, LTD., priority 2011, published 2016):
Where “and” joins values, the source holds several entries; their conditions need not be identical. Equal values may be shown once. Marks after values point to notes of the source that are not given here.

What was measured:
MOG-induced EAE [1] = assay: MOG-induced EAE, lower doses of laquinimod with GA-blocking (Example 2.2); format: in vivo, C57B1/6 mice; conditions: alone or + GA-blocking 12.5 mg/kg day 0
Protocol: MOG is a member of the immunoglobulin superfamily expressed exclusively in CNS myelin. It is one of the most encephalitogenic proteins and is widely used to induce EAE in different rodent strains. In C57BL/6 mice, immunization with the MOG peptide pMOG35-55 in CFA induces chronic progressive EAE.
24 mg MOG was diluted in 8 ml PBS (3 mg/ml, stock solution). Groups 1, 3 and 5: 3.5 ml of stock solution was diluted 1:1 with PBS. […] 4.5 ml of MOG stock solution was added to this solution.
The high dose LAQ (5 mg/10 ml/kg) solution (40 mg in 80 ml DDW) was prepared once weekly and stored at room temperature. For the dose of 2.5 mg/kg LAQ, 25 ml of this solution were added to 25 ml DDW. For the dose 1 mg/kg 5 ml of stock solution (high dose) were added to 20 ml DDW. The compound was administered by gavage once daily during the whole experiment (30 days) at a volume of 0.2 ml/mouse.
The mice were observed daily from the 9th day post-EAE induction (first injection of MOG) and the EAE clinical signs were scored according to the grades described in the 2 above.

MOG-induced EAE [2] = assay: MOG-induced EAE with GA blocking and s.c. daily GA (Example 2.5); format: in vivo, C57B1 mice; design: key to MMS value / GMS value: EAE clinical grade (Table 2); ≥1 = sick, 6 = dead/sacrificed
Protocol: The objective of this study was to test the suppressive effect of laquinimod alone and in combination with Glatiramer acetate in the EAE model in C57B1 mice. […] Laquinimod was administered orally at dose levels of 2.5 and 5.0 mg/kg.
EAE was induced in the mice by the injection of the encephalitogenic emulsion (MOG/CFA). Laquinimod was administered orally for 30 consecutive days.
EAE induction EAE was induced by injecting the encephalitogenic mixture (emulsion) consisting of MOG ([…]). A 0.2 ml emulsion was injected subcutaneously into the flanks of the mice. Pertussis toxin was injected intraperitoneally on the day of induction and 48 hours later (total amount will be 0.150+0.150=0.300 μg/mouse in 0.2 ml dosage volume).
Groups 1, 3-8: 45.9 mg MOG was diluted in […] Normal Saline (3.0 mg/ml MOG stock solution). 12.5 mL of 3.0 mg/ml stock solution was diluted in 12.5 mL Normal Saline to yield 1.5 mg MOG/mL. […] The emulsification was made from equal parts of oil and liquid portions (1:1) in two syringes connected to each other with Leur lock, transferred to insulin syringe and 0.2 ml was injected the right flank of each mouse. The dose of the MOG in all the groups (1 to 8) was […].
The test concentrations of laquinimod were prepared in purified water. For high dose (25.0 mg/kg) 2.5 mg/mL stock solution was prepared (group 8). The 2.5 mg/mL stock solution was diluted 1:5 and 1:10 to yield 0.5 and 0.25 mg/mL for dose levels of 5.0 mg/kg for groups 5 and 7 and 2.5 mg/kg respectively for groups #4 and 6. Laquinimod was administered daily from the initiation of the study, to the respective groups by gavage at a volume of 0.2 ml/mouse.
Every day one tube was thawed and brought to RT.
Clinical signs Scoring of EAE clinical signs was started from Day 10 post EAE induction and was continued daily until Day 30. The clinical signs were recorded according to a grading system described in the Table 2 above.
All mice having scores of 1 and above were considered sick. When the first clinical sign appeared all mice were given food soaked in water, which was spread on different places on the bedding of the cages. An animal which continued to have score 5 for three days was killed on humane grounds and given score 6 on the next day. For calculation purposes, the score of animals that were sacrificed or died (6) was carried forward.

MSCH-induced EAE = MSCH-induced EAE in CSJL mice (Example 2.7); format: in vivo, CSJL/F1 mice
[3] = laquinimod 2.5 mg/kg/day gavage
[4] = LAQ 2.5 mg/kg oral daily 30 d, alone or + GA 250 mg/kg s.c. daily 10 d
[5] = LAQ 2.5 mg/kg oral daily 30 d, alone or + GA 250 mg/kg s.c. daily 10 d, listed as LAQ
[6] = LAQ 5.0 mg/kg oral daily 30 d, alone or + GA 250 mg/kg s.c. daily 10 d
[7] = LAQ 0.01 mg/kg/day oral, alone or + GA Blocking 0.5 mg/kg
[8] = LAQ 0.1 mg/kg/day oral, alone or + GA Blocking 0.5 mg/kg

`CCN(C(=O)c1c(O)c2c(Cl)cccc2n(C)c1=O)c1ccccc1` [laquinimod] was tested, and the inhibition at 2.5 mg/kg (MOG-induced EAE [1]; Mus musculus, po, 0 h, laquinimod 2.5 mg/kg/day gavage, read-out: % Inhibition compared to control (GMS)) was 53.7%, the inhibition at 5 mg/kg (MOG-induced EAE [1]; Mus musculus, po, 0 h, laquinimod 5 mg/kg/day gavage, read-out: % Inhibition compared to control (GMS)) was ≤ 68% and the “Group Mean Score” value (MOG-induced EAE [1]; [3]) was 1.50**. For the same compound, the Incidence (MOG-induced EAE [1]; [3]) was 13/15, the “Mean Disease Duration” value (MOG-induced EAE [1]; [3]) was 10.2*** days and the “Mean Maximal Score” value (MOG-induced EAE [1]; [3]) was 3.17**. For the same compound, the “Mean Onset” value (MOG-induced EAE [1]; [3]) was 18.9*** days, the Mortality (MOG-induced EAE [1]; [3]) was 1/15 and the “% inhibition compared to Control (GMS)” value (MOG-induced EAE [1]; laquinimod 5 mg/kg/day gavage) was 68.2%. For the same compound, the “Group Mean Score” value (MOG-induced EAE [1]; laquinimod 5 mg/kg/day gavage) was 1.03***, the Incidence (MOG-induced EAE [1]; laquinimod 5 mg/kg/day gavage) was 12/14 and the “Mean Disease Duration” value (MOG-induced EAE [1]; laquinimod 5 mg/kg/day gavage) was 8.6*** days. The “Mean Maximal Score” value (MOG-induced EAE [1]; laquinimod 5 mg/kg/day gavage) was 2.89**, the “Mean Onset” value (MOG-induced EAE [1]; laquinimod 5 mg/kg/day gavage) was 18.1*** days and the Mortality (MOG-induced EAE [1]; laquinimod 5 mg/kg/day gavage) was 0/14. For the same compound, the “% Inhibition 1 (incidence)” value (MOG-induced EAE [2]; [4]) was 57.1%, the GMS value (MOG-induced EAE [2]; [4]) was 0.5 ± 0.8 and the Incidence (MOG-induced EAE [2]; [4]) was 6/15. For the same compound, the “MMS % Inhibition 2” value (MOG-induced EAE [2]; [4]) was 55.9%, the MMS value (MOG-induced EAE [2]; [4]) was 1.5 ± 2.1 and the “Mean Duration” value (MOG-induced EAE [2]; [4]) was 0.8 ± 2.6 days. The “Mean Onset” value (MOG-induced EAE [2]; [4]) was 30.3 ± 2.6 days, the Mortality (MOG-induced EAE [2]; [4]) was “One” and the “GMS % Inhibition 3” value (MOG-induced EAE [2]; [5]) was 76.2%. For the same compound, the Mortality (MOG-induced EAE [2]; [5]) was 1/15, the “GMS % Inhibition 3” value (MOG-induced EAE [2]; LAQ 2.5 mg/kg oral daily 30 d, alone or + GA 250 mg/kg s.c. daily 10 d, listed as LQ) was 76.2% and the “% Inhibition 1 (incidence)” value (MOG-induced EAE [2]; [6]) was 64.3%. For the same compound, the GMS value (MOG-induced EAE [2]; [6]) was 0.6 ± 0.7, the Incidence (MOG-induced EAE [2]; [6]) was 9/15 and the “MMS % Inhibition 2” value (MOG-induced EAE [2]; [6]) was 38.2%. The MMS value (MOG-induced EAE [2]; [6]) was 2.1 ± 1.8, the “Mean Duration” value (MOG-induced EAE [2]; [6]) was 5.7 ± 6.6 days and the “Mean Onset” value (MOG-induced EAE [2]; [6]) was 25.1 ± 6.8 days. For the same compound, the Mortality (MOG-induced EAE [2]; [6]) was 0/15, the “% Inhibition 1 (incidence)” value (MOG-induced EAE [2]; LAQ 25.0 mg/kg oral daily 30 d) was 100.0% and the “GMS % Inhibition 3” value (MOG-induced EAE [2]; LAQ 25.0 mg/kg oral daily 30 d) was 100.0%. For the same compound, the GMS value (MOG-induced EAE [2]; LAQ 25.0 mg/kg oral daily 30 d) was 0.0 ± 0.0, the Incidence (MOG-induced EAE [2]; LAQ 25.0 mg/kg oral daily 30 d) was 0/15 and the “MMS % Inhibition 2” value (MOG-induced EAE [2]; LAQ 25.0 mg/kg oral daily 30 d) was 100.00%. The MMS value (MOG-induced EAE [2]; LAQ 25.0 mg/kg oral daily 30 d) was 0.0 ± 0.0, the “Mean Duration” value (MOG-induced EAE [2]; LAQ 25.0 mg/kg oral daily 30 d) was 31.0 ± 0.0 days and the “Mean Onset” value (MOG-induced EAE [2]; LAQ 25.0 mg/kg oral daily 30 d) was 0.0 ± 0.0 days. For the same compound, the Mortality (MOG-induced EAE [2]; LAQ 25.0 mg/kg oral daily 30 d) was 0/15, the “GMS % Inhibition 3” value (MOG-induced EAE [2]; LAQ 25.0 mg/kg oral daily 30 d, listed as LAQ) was 100.00% and the “GMS % Inhibition 3” value (MOG-induced EAE [2]; LAQ 25.0 mg/kg oral daily 30 d, listed as LQ) was 100%. For the same compound, the “% Inhibition 1 (incidence)” value (MSCH-induced EAE; [7]) was 0.0%, the “GMS % Inhibition 3” value (MSCH-induced EAE; [7]) was 16.7% and the GMS value (MSCH-induced EAE; [7]) was 3.5 ± 0.9. The Incidence (MSCH-induced EAE; [7]) was 10/10, the “MMS % Inhibition 2” value (MSCH-induced EAE; [7]) was 4.0% and the MMS value (MSCH-induced EAE; [7]) was 4.8 ± 0.4. For the same compound, the “Mean Duration” value (MSCH-induced EAE; [7]) was 11.5 ± 0.8 days, the “Mean Onset” value (MSCH-induced EAE; [7]) was 12.5 ± 0.8 days and the “% Inhibition 1 (incidence)” value (MSCH-induced EAE; [8]) was 10.0%. For the same compound, the “GMS % Inhibition 3” value (MSCH-induced EAE; [8]) was 31.0%, the GMS value (MSCH-induced EAE; [8]) was 2.9 ± 1.5 and the Incidence (MSCH-induced EAE; [8]) was 9/10. For the same compound, the “MMS % Inhibition 2” value (MSCH-induced EAE; [8]) was 18.0%, the MMS value (MSCH-induced EAE; [8]) was 4.2 ± 1.7 and the “Mean Duration” value (MSCH-induced EAE; [8]) was 9.8 ± 4.0 days. The “Mean Onset” value (MSCH-induced EAE; [8]) was 14.2 ± 4.0 days, the “% Inhibition 1 (incidence)” value (MSCH-induced EAE; LAQ 0.3 mg/kg/day oral) was 0.0% and the “GMS % Inhibition 3” value (MSCH-induced EAE; LAQ 0.3 mg/kg/day oral) was 28.6%. For the same compound, the GMS value (MSCH-induced EAE; LAQ 0.3 mg/kg/day oral) was 3.0 ± 1.2, the Incidence (MSCH-induced EAE; LAQ 0.3 mg/kg/day oral) was 10/10 and the “MMS % Inhibition 2” value (MSCH-induced EAE; LAQ 0.3 mg/kg/day oral) was 16.0%. The MMS value (MSCH-induced EAE; LAQ 0.3 mg/kg/day oral) was 4.2 ± 1.0, the “Mean Duration” value (MSCH-induced EAE; LAQ 0.3 mg/kg/day oral) was 10.8 ± 2.0 days and the “Mean Onset” value (MSCH-induced EAE; LAQ 0.3 mg/kg/day oral) was 13.2 ± 2.0 days. The Mortality (MSCH-induced EAE; LAQ 0.3 mg/kg/day oral) was 6/10, the “% Inhibition 1 (incidence)” value (MSCH-induced EAE; LAQ 1.0 mg/kg/day oral) was 0.0% and the “GMS % Inhibition 3” value (MSCH-induced EAE; LAQ 1.0 mg/kg/day oral) was 38.1%. The GMS value (MSCH-induced EAE; LAQ 1.0 mg/kg/day oral) was 2.6 ± 1.1, the Incidence (MSCH-induced EAE; LAQ 1.0 mg/kg/day oral) was 10/10 and the “MMS % Inhibition 2” value (MSCH-induced EAE; LAQ 1.0 mg/kg/day oral) was 28.0%. The MMS value (MSCH-induced EAE; LAQ 1.0 mg/kg/day oral) was 3.6 ± 0.0, the “Mean Duration” value (MSCH-induced EAE; LAQ 1.0 mg/kg/day oral) was 10.7 ± 1.9 days and the “Mean Onset” value (MSCH-induced EAE; LAQ 1.0 mg/kg/day oral) was 13.0 ± 2.0 days. For the same compound, the Mortality (MSCH-induced EAE; LAQ 1.0 mg/kg/day oral) was 3/10 and the Mortality (MSCH-induced EAE; mouse, in vivo) was 7/10 and 8/10.
